Data published in patent US11214594B2, “Antimicrobial peptide having synergistic antibacterial effect with antibiotics on multidrug resistant bacteria, and use thereof” (priority 2016, dated 2022).
In brackets after ≈: the same amount, converted by molar mass. Where two headings read alike, the source gives them in different places. Where a SMILES comes first, the peptide text is derived from it. [ ]: non-standard residue; d: D form.

Key:
[1] = system: MDREC 1238; type: cell-based, Escherichia coli
Outline: (§1)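 MIC read-out = lowest peptide level with no bacterial proliferation. Strains diluted in MH medium to 2×10^6 CFU; peptide twofold serial dilutions in MH added 1:1 in microtiter wells.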

[2] = system: P. aeruginosa; assay: microbe, parasite or virus in culture; type: cell-based, Pseudomonas aeruginosa
Outline: as §1

[3] = system: MDRPA 2002; type: cell-based, Pseudomonas aeruginosa
Outline: as §1

[4] = system: MDRPA 2003; type: cell-based, Pseudomonas aeruginosa
Outline: as §1

[5] = system: A. baumannii; assay: microbe, parasite or virus in culture; type: cell-based, Acinetobacter baumannii
Outline: as §1

[6] = system: MDRAB 12035; assay: microbe, parasite or virus in culture; type: cell-based, Acinetobacter baumannii
Outline: as §1

[7] = system: MDRAB 12036; type: cell-based, Acinetobacter baumannii
Outline: as §1

[8] = system: S. typhimurium; assay: microbe, parasite or virus in culture; type: cell-based, Salmonella typhimurium
Outline: as §1

[9] = system: MDRST 8007; assay: Minimal inhibitory concentration (MIC), single agent; type: cell-based, Salmonella typhimurium; conditions: agent alone
Outline: as §1

[10] = system: B. subtilis; assay: microbe, parasite or virus in culture; type: cell-based, Bacillus subtilis
Outline: as §1

[11] = system: S. epidermidis; assay: microbe, parasite or virus in culture; type: cell-based, Staphylococcus epidermidis
Outline: as §1

[12] = system: S. aureus; assay: microbe, parasite or virus in culture; type: cell-based, Staphylococcus aureus
Outline: as §1

[13] = system: MRSA 3114; type: cell-based, Staphylococcus aureus; conditions: 3114
Outline: as §1

[14] = system: MRSA 3126; type: cell-based, Staphylococcus aureus; conditions: 3126
Outline: as §1

[15] = system: MDREC 1229; assay: MIC of antibiotic during combined treatment with antimicrobial peptide; type: cell-based, Escherichia coli
Outline: (§2)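 Broth microdilution in MH medium; strains were diluted to 2×10^6 CFU per ml before plating. Peptide was serially diluted stepwise at 2:1 starting from its MIC, and MH-diluted antibiotic was then added to determine MIC. The reversed arrangement was also tested.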

[16] = system: MDRAB 12035; assay: as above; type: cell-based, Acinetobacter baumannii
Outline: as §2

[17] = system: E. coli; type: cell-based, Escherichia coli; conditions: E. coli
Outline: as §2

[18] = system: MDREC 1229; type: cell-based, Escherichia coli
Outline: as §2

[19] = system: A. baumannii; assay: MIC of antimicrobial peptide during combined treatment with antibiotic; type: cell-based, Acinetobacter baumannii
Outline: as §2

[20] = system: MDRAB 12035; assay: as above; type: cell-based, Acinetobacter baumannii
Outline: as §2

[21] = peptide treatment concentration 1 μg/ml
[22] = peptide treatment concentration 2 μg/ml
[23] = peptide treatment concentration 4 μg/ml
[24] = peptide treatment concentration 6 μg/ml
[25] = peptide treatment concentration 8 μg/ml
[26] = peptide treatment concentration 16 μg/ml
[27] = peptide treatment concentration 32 μg/ml
[28] = peptide treatment concentration 64 μg/ml
[29] = linezolid 64 μg/ml (Conc./MIC 1/8)
[30] = linezolid 512 μg/ml (Conc./MIC 1)
[31] = vancomycin 512 μg/ml (Conc./MIC 1/2)
[32] = vancomycin 1024 μg/ml (Conc./MIC 1)
[33] = erythromycin 4 μg/ml (Conc./MIC 1/8)
[34] = erythromycin 8 μg/ml (Conc./MIC 1/4)
[35] = erythromycin 16 μg/ml (Conc./MIC 1/2)
[36] = erythromycin 32 μg/ml (Conc./MIC 1)

## CC[C@H](C)[C@H](NC(=O)[C@H](CCCCN)NC(=O)[C@H](Cc1c[nH]c2ccccc12)NC(=O)[C@@H](N)CCCNC(=N)N)C(=O)N[C@@H](Cc1ccccc1)C(=O)N[C@@H](CCCCN)C(=O)N[C@@H](CCCCN)C(=O)N[C@H](C(=O)N[C@H](CCCCN)C(=O)N[C@@H](CCCCN)C(=O)N[C@@H](CC(C)C)C(=O)N[C@@H](CC(C)C)C(=O)N[C@@H](Cc1c[nH]cn1)C(=O)N[C@@H](CCCCN)C(=O)N[C@@H](C)C(=O)N[C@@H](CCCCN)C(=O)N[C@@H](CCCCN)C(=O)N[C@@H](Cc1c[nH]c2ccccc12)C(N)=O)[C@@H](C)CC [PapMA-18, RWK IFK KIk KLL HKA KKW-NH2] (H-RWKIFKKI[dK]KLLHKAKKW-NH2; N-terminus assumed)
[1]
  Minimal inhibitory concentration MIC: 64 µg/mL (≈ 26.9 µM)
[2]
  Minimal inhibitory concentration MIC: 32 µg/mL (≈ 13.5 µM)
[3]
  Minimal inhibitory concentration MIC: 32 µg/mL (≈ 13.5 µM)
[4]
  Minimal inhibitory concentration MIC: 64 µg/mL (≈ 26.9 µM)
[5]
  Minimal inhibitory concentration MIC: 32 µg/mL (≈ 13.5 µM)
  Peptide MIC, peptide alone: 32 µg/mL
[6]
  Minimal inhibitory concentration MIC: 32 µg/mL (≈ 13.5 µM)
  Peptide MIC, peptide alone: 32 µg/mL
[7]
  Minimal inhibitory concentration MIC: 32 µg/mL (≈ 13.5 µM)
[8]
  Minimal inhibitory concentration MIC: 32 µg/mL (≈ 13.5 µM)
[9]
  Minimal inhibitory concentration MIC: 64 µg/mL (≈ 26.9 µM)
[10]
  Minimal inhibitory concentration MIC: >128 µg/mL
[11]
  Minimal inhibitory concentration MIC: >128 µg/mL
[12]
  Minimal inhibitory concentration MIC: >128 µg/mL
[13]
  Minimal inhibitory concentration MIC: >128 µg/mL
[14]
  Minimal inhibitory concentration MIC: >128 µg/mL
[15]; [21]
  Antibiotic MIC, Erythromycin: >128 µg/mL
  Antibiotic MIC, Linezolid: >128 µg/mL
  Antibiotic MIC, Vancomycin: >128 µg/mL
[15]; [22]
  Antibiotic MIC, Erythromycin: 32 µg/mL
  Antibiotic MIC, Linezolid: >128 µg/mL
  Antibiotic MIC, Vancomycin: >128 µg/mL
[15]; [23]
  Antibiotic MIC, Erythromycin: 16 µg/mL
  Antibiotic MIC, Linezolid: 64 µg/mL
  Antibiotic MIC, Vancomycin: >128 µg/mL
[15]; [24]
  Antibiotic MIC, Erythromycin: 4 µg/mL
  Antibiotic MIC, Linezolid: 32 µg/mL
  Antibiotic MIC, Vancomycin: 32 µg/mL
[15]; [25]
  Antibiotic MIC, Erythromycin: 2 µg/mL
  Antibiotic MIC, Linezolid: 16 µg/mL
  Antibiotic MIC, Vancomycin: 16 µg/mL
[15]; [26]
  Antibiotic MIC, Erythromycin: 1 µg/mL
  Antibiotic MIC, Linezolid: 8 µg/mL
  Antibiotic MIC, Vancomycin: 8 µg/mL
[15]; [27]
  Antibiotic MIC, Erythromycin: 0.5 µg/mL
  Antibiotic MIC, Linezolid: 4 µg/mL
  Antibiotic MIC, Vancomycin: 4 µg/mL
[15]; [28]
  Antibiotic MIC, Erythromycin: 0 µg/mL
  Antibiotic MIC, Linezolid: 0 µg/mL
  Antibiotic MIC, Vancomycin: 0 µg/mL
[16]; [21]
  Erythromycin MIC during combined treatment with peptide: 32 µg/mL
  Linezolid MIC during combined treatment with peptide: >128 µg/mL
  Vancomycin MIC during combined treatment with peptide: >128 µg/mL
[16]; [22]
  Erythromycin MIC during combined treatment with peptide: 32 µg/mL
  Linezolid MIC during combined treatment with peptide: >128 µg/mL
  Vancomycin MIC during combined treatment with peptide: >128 µg/mL
[16]; [23]
  Erythromycin MIC during combined treatment with peptide: 16 µg/mL
  Linezolid MIC during combined treatment with peptide: 64 µg/mL
  Vancomycin MIC during combined treatment with peptide: 128 µg/mL
[16]; [24]
  Erythromycin MIC during combined treatment with peptide: 4 µg/mL
  Linezolid MIC during combined treatment with peptide: 32 µg/mL
  Vancomycin MIC during combined treatment with peptide: 32 µg/mL
[16]; [25]
  Erythromycin MIC during combined treatment with peptide: 2 µg/mL
  Linezolid MIC during combined treatment with peptide: 16 µg/mL
  Vancomycin MIC during combined treatment with peptide: 16 µg/mL
[16]; [26]
  Erythromycin MIC during combined treatment with peptide: 0.5 µg/mL
  Linezolid MIC during combined treatment with peptide: 8 µg/mL
  Vancomycin MIC during combined treatment with peptide: 16 µg/mL
[16]; [27]
  Erythromycin MIC during combined treatment with peptide: 0 µg/mL
  Linezolid MIC during combined treatment with peptide: 0 µg/mL
  Vancomycin MIC during combined treatment with peptide: 0 µg/mL
[16]; [28]
  Erythromycin MIC during combined treatment with peptide: 0 µg/mL
  Linezolid MIC during combined treatment with peptide: 0 µg/mL
  Vancomycin MIC during combined treatment with peptide: 0 µg/mL
[17]; with Erythromycin […] (Conc./MIC 1)
  Peptide MIC: 0 µg/mL
[17]; with Linezolid […] (Conc./MIC 1)
  Peptide MIC: 0 µg/mL
[17]; with Vancomycin 1024 μg/ml (Conc./MIC 1)
  Peptide MIC: 0 µg/mL
[18]; erythromycin 32 μg/ml (Conc./MIC 1/8)
  Peptide MIC during treatment with antibiotic: 2 µg/mL
[18]; erythromycin 64 μg/ml (Conc./MIC 1/4)
  Peptide MIC during treatment with antibiotic: 2 µg/mL
[18]; erythromycin […] (Conc./MIC 1)
  Peptide MIC during treatment with antibiotic: 0 µg/mL
[18]; erythromycin […] (Conc./MIC 1/2)
  Peptide MIC during treatment with antibiotic: 2 µg/mL
[18]; [29]
  Peptide MIC during treatment with antibiotic: 4 µg/mL
[18]; [30]
  Peptide MIC during treatment with antibiotic: 0 µg/mL
[18]; linezolid […] (Conc./MIC 1/2)
  Peptide MIC during treatment with antibiotic: 1 µg/mL
[18]; linezolid […] (Conc./MIC 1/4)
  Peptide MIC during treatment with antibiotic: 4 µg/mL
[18]; [31]
  Peptide MIC during treatment with antibiotic: 2 µg/mL
[18]; [32]
  Peptide MIC during treatment with antibiotic: 1 µg/mL
[18]; vancomycin […] (Conc./MIC 1/4)
  Peptide MIC during treatment with antibiotic: 4 µg/mL
[18]; vancomycin […] (Conc./MIC 1/8)
  Peptide MIC during treatment with antibiotic: 8 µg/mL
[19]; [33]
  Peptide MIC during treatment with antibiotic: 4 µg/mL
[19]; [34]
  Peptide MIC during treatment with antibiotic: 4 µg/mL
[19]; [35]
  Peptide MIC during treatment with antibiotic: 4 µg/mL
[19]; [36]
  Peptide MIC during treatment with antibiotic: 0 µg/mL
[19]; linezolid 32 μg/ml (Conc./MIC 1/8)
  Peptide MIC during treatment with antibiotic: 8 µg/mL
[19]; linezolid 64 μg/ml (Conc./MIC 1/4)
  Peptide MIC during treatment with antibiotic: 4 µg/mL
[19]; linezolid […] (Conc./MIC 1)
  Peptide MIC during treatment with antibiotic: 0 µg/mL
[19]; linezolid […] (Conc./MIC 1/2)
  Peptide MIC during treatment with antibiotic: 2 µg/mL
[19]; [31]
  Peptide MIC during treatment with antibiotic: 0.25 µg/mL
[19]; [32]
  Peptide MIC during treatment with antibiotic: 0 µg/mL
[19]; vancomycin […] (Conc./MIC 1/4)
  Peptide MIC during treatment with antibiotic: 0.5 µg/mL
[19]; vancomycin […] (Conc./MIC 1/8)
  Peptide MIC during treatment with antibiotic: 4 µg/mL
[20]; [33]
  Peptide MIC during treatment with erythromycin: 4 µg/mL
[20]; [34]
  Peptide MIC during treatment with erythromycin: 4 µg/mL
[20]; [35]
  Peptide MIC during treatment with erythromycin: 4 µg/mL
[20]; [36]
  Peptide MIC during treatment with erythromycin: 0 µg/mL
[20]; [29]
  Peptide MIC during treatment with linezolid: 4 µg/mL
[20]; [30]
  Peptide MIC during treatment with linezolid: 0 µg/mL
[20]; linezolid […] (Conc./MIC 1/2)
  Peptide MIC during treatment with linezolid: 1 µg/mL
[20]; linezolid […] (Conc./MIC 1/4)
  Peptide MIC during treatment with linezolid: 4 µg/mL
[20]; [31]
  Peptide MIC during treatment with vancomycin: 2 µg/mL
[20]; [32]
  Peptide MIC during treatment with vancomycin: 1 µg/mL
[20]; vancomycin […] (Conc./MIC 1/4)
  Peptide MIC during treatment with vancomycin: 4 µg/mL
[20]; vancomycin […] (Conc./MIC 1/8)
  Peptide MIC during treatment with vancomycin: 4 µg/mL
